Reference: patent US20200181671A1, “Method for Increasing Content of Mogroside V in Siraitia Grosvenorii Suspended Cells” (Guilin Layn Natural Ingredients Corp, priority 2017, published 2020)

Columns and labels:
[1] = tested on: Siraitia grosvenorii suspended cells; experiment: Content of mogroside II in Siraitia grosvenorii suspended cells at the peak of mogroside V, HPLC; format: cell-based; details: n = 5, x ± s
Protocol: Weighing 1.5 g Siraitia grosvenorii dry weight cells, adding 60% ethanol at a feed to liquid ratio of […], ultrasonically extracting for 40 min, extracting for 2 h at 90° C. in a slightly boiling state, repeating the extraction for 3 times, and combining the extracts to concentrate them to 5 mL in a rotary evaporator. The concentrate was filtered through a 0.22 μm filtration membrane, and then qualitative and quantitative analysis was performed using a high-performance liquid chromatograph.
Chromatographic conditions: The chromatographic column was a ZORBAX SBC C18 column, 4.6 mm×150 mm; the mobile phase was water-acetonitrile gradient elution (0-25 min, 13.5% to 35% acetonitrile), the flow rate was 0.8 mL/min; and the detection wavelength was 203 nm.

[2] = tested on: Siraitia grosvenorii suspended cells; experiment: Content (yield) of mogroside V in Siraitia grosvenorii suspended cells under different treatment conditions, HPLC; format: cell-based
Protocol: Weighing 1.5 g Siraitia grosvenorii dry weight cells, adding 60% ethanol at a feed-to-liquid ratio of 15:1, ultrasonically extracting for 40 min, extracting for 2 h at 90° C. in a slightly boiling state, repeating the extraction for 3 times, and combining the extracts to concentrate them to 5 mL in a rotary evaporator. The concentrate was filtered through a 0.22 μm filtration membrane, and then qualitative and quantitative analysis was performed using a high-performance liquid chromatograph.
Chromatographic conditions: The chromatographic column was an inverted C18 column, 4.6 mm×250 mm; the mobile phase was water-acetonitrile at a ratio of 78:22, the flow rate was 1.0 mL/min; and the detection wavelength was 203 nm.

pueraria suspended cells = details: 1.0 mg/L; cited from earlier work
[3] = tested on: suspension culture cells of Maackia amurensis Rupr. et Maxim; details: 200 μmol/L, 9 days; cited from earlier work
[4] = tested on: Siraitia grosvenorii suspended cells; experiment: Content (yield) of mogroside V in Siraitia grosvenorii suspended cells under different treatment conditions, HPLC; format: cell-based; details: suspended cells in the logarithmic growing period treated with methyl jasmonate alone
[5] = tested on: Taxus chinensis suspended cells; details: 100 μmol/L; cited from earlier work
[6] = tested on: Siraitia Grosvenorii Cell Culture System; details: 500 mg/L; cited from earlier work

Q: Which “Content of mogroside II” value [1] does the source give for `CC/C=C\CC1C(=O)CCC1CC(=O)OC` (stereo not shown) [Comparative Example 4] here?
A: 32.8 ± 2.6 g/L

Q: And the “yield of mogroside V per unit time” value ([2]; 1 d of culture, n = 5, x ± s)?
A: 31.1 ± 0.8 g/L

Q: And the “yield of mogroside V per unit time” value ([2]; 3 d of culture, n = 5, x ± s)?
A: 32.6 ± 0.9 g/L

Q: What about the “yield of mogroside V per unit time” value ([2]; 5 d of culture, n = 5, x ± s) of the same compound?
A: 33.2 ± 1.1 g/L

Q: What about the “yield of mogroside V per unit time” value ([2]; 7 d of culture, n = 5, x ± s) of the same compound?
A: 33.5 ± 1.5 g/L

Q: What about the “yield of mogroside V per unit time” value ([2]; 9 d of culture, n = 5, x ± s) of the same compound?
A: 39.5 ± 2.0 g/L

Q: And the “yield of mogroside V per unit time” value ([2]; 11 d of culture, n = 5, x ± s)?
A: 46.5 ± 1.8 g/L

Q: What about the “yield of mogroside V per unit time” value ([2]; 13 d of culture, n = 5, x ± s) of the same compound?
A: 51.6 ± 1.8 g/L

Q: What about the “yield of mogroside V per unit time” value ([2]; 15 d of culture, n = 5, x ± s) of the same compound?
A: 53.6 ± 1.5 g/L

Q: What about the “yield of mogroside V per unit time” value ([2]; 17 d of culture, n = 5, x ± s) of the same compound?
A: 54.5 ± 1.6 g/L

Q: What about the “yield of mogroside V per unit time” value ([2]; 19 d of culture, n = 5, x ± s) of the same compound?
A: 55.7 ± 1.8 g/L

Q: What about the “yield of mogroside V per unit time” value ([2]; 21 d of culture, n = 5, x ± s) of the same compound?
A: 56.8 ± 2.0 g/L

Q: And the “yield of mogroside V per unit time” value ([2]; 23 d of culture, n = 5, x ± s)?
A: 58.2 ± 2.2 g/L

Q: And the “yield of mogroside V per unit time” value ([2]; 25 d of culture, n = 5, x ± s)?
A: 55.2 ± 2.4 g/L

Q: And the “yield of mogroside V per unit time” value ([2]; 27 d of culture, n = 5, x ± s)?
A: 51.4 ± 2.5 g/L

Q: And the “yield of mogroside V per unit time” value ([2]; 29 d of culture, n = 5, x ± s)?
A: 46.5 ± 2.4 g/L

Q: And the “yield of mogroside V per unit time” value ([2]; 31 d of culture, n = 5, x ± s)?
A: 41.2 ± 2.5 g/L

Q: And the “Peak yield (maximum yield) of mogroside V” value ([2]; maximum over days 1 to 31 of culture, n = 5, x ± s)?
A: 58.2 ± 2.2 g/L

Q: With `CC/C=C\CC1C(=O)CCC1CC(=O)OC` (stereo not shown) [methyl jasmonate, Methyl jasmonate] as the compound, how does the “total content of mogroside V” value ([2]; inducer added alone, compared with the normal culture group, result in words) read?
A: decreased compared with the normal culture group

Q: What about the “amount of synthesis of mogroside V per unit time” value ([2]; suspended cells in the logarithmic growing period treated with methyl jasmonate alone) of the same compound?
A: increased

Q: And the “content of puerarin in the cell culture” value (pueraria suspended cells)?
A: increased

Q: What about the “content of isoflavone, of that of the control of the same period” value [3] of the same compound?
A: 417.18%

Q: And the cell browning [4]?
A: cell browning phenomenon was obvious

Q: And the “increase of the content of paclitaxel” value [5]?
A: 10 times

Q: Which “increase of the total amount of mogroside V compared with the control group” value [6] does the source give for `N[C@@H](Cc1ccccc1)C(=O)O` [phenylalanine] here?
A: 260.38%
